Test results: EP2114888B1, “TRICYCLIC COMPOUNDS AND THEIR USE AS GLUCOCORTICOID RECEPTOR MODULATORS” (priority 2007, dated 2008)
Structures can show the parent of a compound that is named as a salt.

How the values were obtained:
TNFα [1] = assay: LPS-stimulated TNFα production in differentiated U937 cells; type: cell-based, Human; settings: for TNFα % Inhibition: U937 cells
Protocol: Human U937 pre-monocytic cells (American Type Culture Collection, Rockville, MD) were cultured in RPMI 1640 with glutamine (2 mM), penicillin-streptomycin (10 U/mL) and 10% heat-inactivated fetal bovine serum (all from Invitrogen, Grand Island, NY). Cells were differentiated to a monocyte/macrophage phenotype with phorbol 12-myristate 13-acetate (Sigma-Aldrich, St. Louis, MO), 20 ng/mL, overnight. The cells were then centrifuged, the medium aspirated, the cells resuspended in an equal volume of fresh RPMI 1640 medium with glutamine and penicillin-streptomycin and fetal bovine serum as listed above, and incubated for 48 hours at 37°C and with 5% CO2. Following recovery, the cells were scraped, counted, and plated in accordance to the experimental design prior to stimulation with LPS, as described below.
U937 cells were differentiated and plated at a density of 200,000 cells/well in 96-well plates. Cells were incubated with or without compound (vehicle was DMSO at 1% maximum concentration) for approximately one hour and then stimulated with 100 ng/mL lipopolysaccharide (LPS), E. coli serotype 0111:B4 (Sigma-Aldrich, St. Louis, MO) for four hours at 37°C and with 5% CO2. Cell supernatants were collected for determination of TNFα levels using an in-house sandwich-type ELISA. Mouse anti-human TNFα monoclonal antibody (clone 28401.111) and biotinylated goat anti-human TNFα (R&D Systems, Minneapolis, MN) were used as the capture and detection antibodies, respectively. Streptavidin-horseradish peroxidase (HRP) (R&D Systems, Minneapolis, MN) and K-Blue Substrate/Red Stop (Neogen, Lexington, KY) were used as the detection system. Absorbance was measured at 650 nm. TNFα concentrations were interpolated from a human TNFα recombinant protein (R&D Systems, Minneapolis, MN) standard curve using a four parameter logistics model by Magellan 4.11 data analysis software (Tecan, Durham, NC). […] Vehicle was used to define the 0% inhibition control. Percent inhibition for each concentration of compound, relative to these controls, was calculated using Excel (Microsoft, Redmond, WA). IC50 values were generated using LabStats Fit Curve V4.R7.MO data analysis software (Pfizer Sandwich Laboratories, UK and Tessella Support Services plc, Abingdon UK).

IL-6 = assay: IL-1β-stimulated IL-6 production in A549 lung epithelial cells; type: cell-based, Human; settings: A549 cells; Prednisolone (1 µM) = 100% inhibition control
Protocol: Human A549 lung epithelial cells (American Type Culture Collection, Rockville, MD) were cultured in Kaighn's F-12K medium with penicillin-streptomycin (10 U/mL) and 10% heat-inactivated fetal bovine serum (all from Invitrogen, Grand Island, NY). A549 cells were plated at a density of 30,000 cells/well in 96-well plates and incubated overnight at 37°C and with 5% CO2. The cells were serum-starved by replacing the growth medium with serum-free Kaighn's F-12K medium with penicillin-streptomycin (10 U/mL) and, again, incubating overnight at 37°C and with 5% CO2. On the third day, the medium was replaced with fresh serum-free medium and the cells were incubated with or without compound (vehicle was DMSO at 0.1 % maximum concentration) for approximately 1 hour and then stimulated with 1 ng/mL recombinant human IL-1β (R&D Systems, Minneapolis, MN) for 20 hours at 37°C and with 5% CO2. Cell supernatants were collected for determination of IL-6 levels using MSD (Meso Scale Discovery, Gaithersburg, MD) 96-well Single Spot plates as per the manufacturer's instructions. Plates were read with an MSD Sector Imager 6000. […] Percent inhibition for each compound concentration, relative to these controls, was calculated using Excel (Microsoft, Redmond, WA). IC50 values were generated using GraFit 5.0 data analysis software (Erithacus Software Ltd., Surrey, UK).

TNFα [2] = assay: LPS-induced serum TNFα suppression, 28-day repeat dose mouse model; type: in vivo, Swiss Webster female mice; settings: for TNFα Suppression (ED80 dose): oral gavage, 28 days, LPS-induced serum TNFα
Protocol: (§1) The compounds were weighed and suspended in a vehicle of 0.5% methylcellulose/0.025% tween 20 (Sigma-Aldrich, St. Louis, MO). Compound suspensions were homogenized using a Polytron PT-3100 tissue homogenizer to create a very fine suspension and were then sonicated for 10 minutes using a water bath sonicator. Aliquots of each suspension were made for daily dosing at 0.2 ml/dose. Swiss Webster female mice, 10-12 weeks old, 28-29 grams, (Taconic, Germantown, NY) were used in accordance with the guidelines of the Institutional Animal Care and Use Committee and in accordance with NIH guidelines on laboratory animal welfare. Mice were acclimated in the Pfizer animal facility for three to seven days prior to being utilized in a study. […] Each treatment group contained 5-10 mice. To establish a dosing regimen for the studies, a pilot pharmacodynamic time course experiment was conducted to quantify TNFα repression after a single ED80 dose.
(§2) Body weights were measured on the first and last day of each experiment. Blood samples were obtained after three weeks of dosing for a steady-state pharmacokinetic (PK) analysis. To assess compound effects on LPS-induced TNFα, all mice received an intraperitoneal injection of LPS (Salmonella typhosa, L-7895; Sigma-Aldrich, St. Louis,) 2.5 hr after the last dose on day 28. Mice were sacrificed 90 minutes after LPS administration. Serum samples were quantified for osteocalcin and TNFα using the multiplex assays (Linco Research, Inc, St. Charles, MO; Luminex 100, Austin, TX). Samples were diluted 1:20 and the assay was run according to manufacturer's instructions. The osteocalcin standard was purchased separately (Biomedical Technologies Inc., Stoughton, MA). Mice were fasted for 4 hours before serum was collected for TNFα, and osteocalcin levels. For each experiment, outliers were detected by calculating the number of standard deviations from the mean of the group. If the value being examined was more than 2.5 standard deviations from the mean, it was excluded from the rest of the calculations.
(§3) The individual mouse percent inhibition values were fit to a four-parameter logistic model using the dose mean for each group.
(§4) ED50 and ED80 values were obtained for the various endpoints using a four-parameter logistic fit. For compounds which were tested multiple times, ED50 and ED80 values were obtained using four-parameter logistic fits of the combined data from multiple experiments.

[3] = test system: Mouse Collagen-induced arthritis (mCIA); assay: Therapeutic mouse collagen-induced arthritis (mCIA) model; type: in vivo, Male DBA/J mice; settings: for Therapeutic mCIA (ED80 dose): dosing day 34 through day 49
Excerpt: Mouse Collagen-induced arthritis is a commonly used chronic, preclinical model of rheumatoid arthritis in which joint swelling and bone destruction occur following immunization with type II collagen. Reduction of disease incidence and severity has been shown previously to be predictive of disease-modification and signs and symptoms mitigation, respectively, in a clinical setting. In the therapeutic mCIA model, induction of disease incidence and severity was synchronized via LPS stimulation. Male DBA/J mice were immunized with 100 ug of bovine type II collagen (bCII) on day 0. […] Dosing of compounds was initiated in the therapeutic mode on day 34 and continued through day 49. Different treatments were compared by measuring the decrease in incidence (i.e., resolution of disease) and the decrease in severity of paw swelling over time.

[4] = Serum osteocalcin suppression, 28-day repeat dose mouse model; settings: in vivo, po
Protocol: as §1, §2, §3, §4

osteocalcin = assay: as above; settings: in vivo, po
Protocol: as §1, §2, §3, §4

[5] = Prednisolone (1 µM) = 100% inhibition control

Compound | IL-6 % Inhibition (IL-6) [%] | TNFα Suppression (ED80 dose) (TNFα [2]) [mg/kg] | Therapeutic mCIA (ED80 dose) [3] [mg/kg] | also measured
Cc1ncccc1CNC(=O)c1ccc2c(c1)CC[C@@H]1C[C@@](O)(CCC(F)(F)F)CC[C@@]21Cc1ccccc1 [Comparator A, (4βS,7S,8αR)-4β-benzyl-7-hydroxy-N-((2-methylpyridin-3-yl)methyl)-7-(3,3,3-trifluoropropyl)-4β,5,6,7,8,8α,9,10-octahydrophenanthrene-2-carboxamide, reference compound] | 59.9 |  |  | TNFα % Inhibition (TNFα [1]; [5]): 35%
Cc1cnc(NC(=O)c2ccc3c(c2)CC[C@@H]2C[C@@](O)(C(F)(F)F)CC[C@@]32Cc2ccccc2)c(C)n1 [Comparator B, (4βS,7R,8αR)-4β-benzyl-N-(3,5-dimethylpyrazin-2-yl)-7-hydroxy-7-(trifluoromethyl)-4α,5,6,7,8,8α,9,10-octahydrophenanthrene-2-carboxamide] | 75.8 | 2.91 | >10 | 
Cc1ncccc1NC(=O)c1ccc2c(c1)CC[C@@H]1C[C@@](O)(CCC(F)(F)F)CC[C@@]21Cc1ccccc1 [Comparator C, (4βS,7S,8αR)-4β-benzyl-7-hydroxy-N-(2-methylpyridin-3-yl)-7-(3,3,3-trifluoropropyl)-4β,5,6,7,8,8α,9,10-octahydrophenanthrene-2-carboxamide] | 82.6 | 1.33 | >10 | 
Cc1ccncc1NC(=O)c1ccc2c(c1)CC[C@@H]1C[C@@](O)(C(F)(F)F)CC[C@@]21Cc1ccccc1 [Comparator D, (4βS,7R,8αR)-4β-benzyl-7-hydroxy-N-(4-methylpyridin-3-yl)-7-(trifluoromethyl)-4,5,6,7,8,8α,9,10-octahydrophenanthrene-2-carboxamide] | 79.8 | >20 |  | 
Cc1ncccc1NC(=O)c1ccc2c(c1)C(=O)C[C@@H]1C[C@@](O)(C(F)(F)F)CC[C@@]21Cc1ccccc1 [Comparator E, (4βS,7R,8αS)-4β-benzyl-7-hydroxy-N-(2-methylpyridin-3-yl)-10-oxo-7-(trifluoromethyl)-4α,5,6,7,8,8α,9,10-octahydrophenanthrene-2-carboxamide] | 79.7 | 1.18 | 2.6 | 
Cc1ncccc1NC(=O)c1ccc2c(c1)[C@H](O)C[C@@H]1C[C@@](O)(C(F)(F)F)CC[C@@]21Cc1ccccc1 [Comparator F, (4βS,7R,8αR,10R)-4β-benzyl-7,10-dihydroxy-N-(2-methylpyridin-3-yl)-7-(trifluoromethyl)-4β,5,6,7,8,8α,9,10-octahydrophenanthrene-2-carboxamide] | 83.3 | 5.67 | >10 | 
Cc1ncccc1NC(=O)c1ccc2c(c1)CC[C@@H]1C[C@@](O)(C(F)F)CC[C@@]21Cc1ccccc1 [Comparator H, (4βS,7R,8αR)-4β-benzyl-7-(difluoromethyl)-7-hydroxy-N-(2-methylpyridin-3-yl)-4α,5,6,7,8,8α,9,10-octahydrophenanthrene-2-carboxamide] | 64.9 | 0.72 |  | 
Cc1ncccc1NC(=O)c1ccc2c(c1)C=C[C@@H]1C[C@@](O)(C(F)(F)F)CC[C@@]21Cc1ccccc1 [Comparator I, (4βS,7R,8αS)-4β-benzyl-7-hydroxy-N-(2-methylpyridin-3-yl)-7-(trifluoromethyl)-4β,5,6,7,8,8α-hexahydrophenanthrene-2-carboxamide] | 67.5 | 5.45 | >20 | 
Cc1ncc(NC(=O)c2ccc3c(c2)CC[C@@H]2C[C@@](O)(CCC(F)(F)F)CC[C@@]32Cc2ccccc2)c(C)n1 [Comparator J, (4βS,7S,8αR)-4β-benzyl-N-(2,4-dimethylpyrimidin-5-yl)-7-hydroxy-7-(3,3,3-trifluoropropyl)-4β,5,6,7,8,8α,9,10-octahydrophenanthrene-2-carboxamide] | 55 | 0.79 | >20 | 
Cc1ncccc1NC(=O)c1ccc2c(c1)CC[C@@H]1C[C@@](O)(C(F)(F)F)CC[C@@]21Cc1ccccc1 [Example 1 HCL salt, (4βS,7R,8αR)-4β-benzyl-7-hydroxy-N-(2-methylpyridin-3-yl)-7-(trifluoromethyl)-4β,5,6,7,8,8α,9,10-octahydrophenanthrene-2-carboxamide] | 76.9 |  |  | TNFα % Inhibition (TNFα [1]; [5]): 77.1%; TNFα % Inhibition (TNFα [1]; additional result (footnote a)): 62%
C[C@]12C=CC(=O)C=C1CC[C@@H]1[C@@H]2[C@@H](O)C[C@@]2(C)[C@H]1CC[C@]2(O)C(=O)CO [Prednisolone, reference compound] |  |  |  | ED80 (TNFα [2]; Mus musculus, po, 672 h, read-out: TNFα Suppression (ED80 dose)): 2.1 mg/kg; ED80 ([3]; Mus musculus, read-out: Therapeutic mCIA (ED80 dose)): 5.5 mg/kg; inhibition at 1 µM (TNFα [1]; Homo sapiens, U-937, read-out: TNFα % Inhibition): 100%; ED50 [4]: 1 mg/kg; Osteocalcin Suppression (ED80 dose) (osteocalcin): 6.80 mg/kg
